Assays:
Mus musculus [1] = assay: Tested for antiTrypanosomal activity against Trypanosoma rhodesiense in mice at dose of 2.5 mg/kg expressed as mean survival time (MST) or cures; format: functional
Mus musculus [2] = assay: Tested for antiTrypanosomal activity against Trypanosoma rhodesiense in mice at dose of 20 mg/kg expressed as mean survival time (MST) or cures; format: functional
Mus musculus [3] = assay: Tested for antiTrypanosomal activity against Trypanosoma rhodesiense in mice at dose of 5 mg/kg expressed as mean survival time (MST) or cures; format: functional
Mus musculus [4] = assay: Tested for antiTrypanosomal activity against Trypanosoma rhodesiense in mice at dose of 40 mg/kg expressed as mean survival time (MST) or cures; format: functional
Mus musculus [5] = assay: Tested for antiTrypanosomal activity against Trypanosoma rhodesiense in mice at dose of 160 mg/kg expressed as mean survival time (MST) or cures; format: functional
Mus musculus [6] = assay: Tested for antiTrypanosomal activity against Trypanosoma rhodesiense in mice at dose of 640 mg/kg expressed as mean survival time (MST) or cures; format: functional
Mus musculus [7] = assay: Tested for antiTrypanosomal activity against Trypanosoma rhodesiense in mice at dose of 1.25 mg/kg expressed as mean survival time (MST) or cures; format: functional
Mus musculus [8] = assay: Tested for antiTrypanosomal activity against Trypanosoma rhodesiense in mice at dose of 80 mg/kg expressed as mean survival time (MST) or cures; format: functional
Mus musculus [9] = assay: Tested for antiTrypanosomal activity against Trypanosoma rhodesiense in mice at dose of 10 mg/kg expressed as mean survival time (MST) or cures; format: functional
Mus musculus [10] = assay: Tested for antiTrypanosomal activity against Trypanosoma rhodesiense in mice at dose of 320 mg/kg expressed as mean survival time (MST) or cures; format: functional
Mus musculus [11] = assay: Tested for antiTrypanosomal activity against Trypanosoma rhodesiense in mice at dose of 320 mg/kg expressed as mean survival time (MST) or cures T - toxic death; format: functional, organism-based; set-up: dose 320 mg/kg
Mus musculus [12] = assay: Tested for antiTrypanosomal activity against Trypanosoma rhodesiense in mice at dose of 160 mg/kg expressed as mean survival time (MST) or cures T - toxic death; format: functional, organism-based; set-up: dose 160 mg/kg
Mus musculus [13] = assay: Tested for antiTrypanosomal activity against Trypanosoma rhodesiense in mice at dose of 640 mg/kg expressed as mean survival time (MST) or cures, T - toxic death; format: functional, organism-based; set-up: dose 640 mg/kg
Mus musculus [14] = assay: Tested for antiTrypanosomal activity against Trypanosoma rhodesiense in mice at dose of 13.3 mg/kg expressed as mean survival time (MST) or cures; format: functional
Mus musculus [15] = assay: Tested for antiTrypanosomal activity against Trypanosoma rhodesiense in mice at dose of 6.6 mg/kg expressed as mean survival time (MST) or cures; format: functional
Mus musculus [16] = assay: Tested for antiTrypanosomal activity against Trypanosoma rhodesiense in mice at dose of 424 mg/kg expressed as mean survival time (MST) or cures T - toxic death; format: functional, organism-based; set-up: dose 424 mg/kg
Mus musculus [17] = assay: Tested for antiTrypanosomal activity against Trypanosoma rhodesiense in mice at dose of 106 mg/kg expressed as mean survival time (MST) or cures T - toxic death; format: functional, organism-based; set-up: dose 106 mg/kg
Mus musculus [18] = assay: Tested for antiTrypanosomal activity against Trypanosoma rhodesiense in mice at dose of 26.5 mg/kg expressed as mean survival time (MST) or cures; format: functional
Mus musculus [19] = assay: Tested for antiTrypanosomal activity against Trypanosoma rhodesiense in mice at dose of 26.5 mg/kg expressed as mean survival time (MST) or cures T - toxic death; format: functional, organism-based; set-up: dose 26.5 mg/kg
Mus musculus [20] = assay: Tested for antitrypanosomal activity against trypanosoma rhodesiense in mice at dose of 424 mg/kg expressed as mean survival time (MST) or cures; format: functional
Mus musculus [21] = assay: Tested for antiTrypanosomal activity against Trypanosoma rhodesiense in mice at dose of 106 mg/kg expressed as mean survival time (MST) or cures; format: functional
Mus musculus [22] = assay: Tested for antiTrypanosomal activity against Trypanosoma rhodesiense in mice at dose of 3.3 mg/kg expressed as mean survival time (MST) or cures; format: functional
Mus musculus [23] = assay: Tested for antiTrypanosomal activity against Trypanosoma rhodesiense in mice at dose of 212 mg/kg expressed as mean survival time (MST) or cures; format: functional
Mus musculus [24] = assay: Tested for antitrypanosomal activity against trypanosoma rhodesiense in mice at dose of 53 mg/kg expressed as mean survival time (MST) or cures; format: functional
Mus musculus [25] = assay: Tested for antiTrypanosomal activity against Trypanosoma rhodesiense in mice at dose of 53 mg/kg expressed as mean survival time (MST) or cures; format: functional
Mus musculus [26] = assay: Tested for antiTrypanosomal activity by screening against Trypanosoma rhodesiense in mice at dose of 424 mg/kg expressed as mean survival time (MST) or cures T - toxic death; format: functional, organism-based; set-up: dose 424 mg/kg

SMILES | Cures (Mus musculus [1]) | Cures (Mus musculus [2]) | Cures (Mus musculus [3]) | Cures (Mus musculus [4]) | Cures (Mus musculus [5]) | Cures (Mus musculus [6]) | Cures (Mus musculus [8]) | Cures (Mus musculus [9]) | Cures (Mus musculus [10]) | further results
N=C(N)c1ccc(OCCCCCOc2ccc(C(=N)N)cc2)cc1 [PENTAMIDINE] | 4 | 5 | 5 | 5 | 5 | 5 | 5 | 5 | 5 | Cures (Mus musculus [7]): 1
Cl.Cl.c1cc(-c2cnc(-c3ccc(C4=NCCCN4)cc3)o2)ccc1C1=NCCCN1 | 3 | 5 | 3 | 5 |  |  | 2 | 5 |  | Delta MST (Mus musculus [11]): Toxic death; Delta MST (Mus musculus [7]): 2.7 days; Delta MST (Mus musculus [12]): Toxic death; Delta MST (Mus musculus [13]): Toxic death
Cl.Cl.c1cc(-c2nnc(-c3ccc(C4=NCCCN4)cc3)o2)ccc1C1=NCCCN1 |  |  |  |  |  |  |  |  |  | Cures (Mus musculus [14]): 1; Delta MST (Mus musculus [15]): 1.3 days; Delta MST (Mus musculus [16]): Toxic death; Delta MST (Mus musculus [17]): Toxic death; Cures (Mus musculus [18]): 5
CC1CNC(c2ccc(-c3nnc(-c4ccc(C5=NC(C)CN5)cc4)o3)cc2)=N1 (configuration not stated) |  |  |  |  |  |  |  |  |  | Delta MST (Mus musculus [19]): Toxic death; Delta MST (Mus musculus [16]): Toxic death; Delta MST (Mus musculus [17]): Toxic death
Cl.Cl.N=C(N)c1ccc(-c2cnc(-c3ccc(C(=N)N)cc3)o2)cc1 | 3 | 5 | 5 | 5 | 5 | 5 | 5 | 5 | 5 | Delta MST (Mus musculus [7]): 1.8 days
Cl.Cl.N=C(N)c1ccc(-c2nnc(-c3ccc(C(=N)N)cc3)s2)cc1 |  |  |  |  |  |  |  |  |  | Cures (Mus musculus [14]): 5; Cures (Mus musculus [20]): 2; Cures (Mus musculus [21]): 5; Cures (Mus musculus [22]): 3; Cures (Mus musculus [23]): 5; Cures (Mus musculus [15]): 4; Delta MST (Mus musculus [7]): 2 days; Cures (Mus musculus [24]): 5; Cures (Mus musculus [18]): 5
N=C(N)c1ccc(/C=C/c2ccc(C(=N)N)cc2)cc1 [STILBAMIDINE] | 5 | 5 | 5 | 5 | 5 | 5 | 5 | 5 | 5 | Cures (Mus musculus [7]): 2
N=C(N)c1ccc(/C=C/c2ccc(C(=N)N)cc2O)cc1 [HYDROXYSTILBAMIDINE] | 5 | 5 | 5 | 5 | 5 | 5 | 5 | 5 | 5 | Cures (Mus musculus [7]): 2
Cl.Cl.c1cc(-c2nnc(-c3ccc(C4=NCCCN4)cc3)s2)ccc1C1=NCCCN1 |  |  |  |  |  |  |  |  |  | Delta MST (Mus musculus [19]): Toxic death; Delta MST (Mus musculus [4]): 1.1 days; Delta MST (Mus musculus [16]): Toxic death; Delta MST (Mus musculus [17]): Toxic death
N=C(Nc1ccc(NC(=N)c2ccccc2)o1)c1ccccc1 | 4 | 5 | 5 | 5 | 5 | 5 | 5 | 5 | 5 | Cures (Mus musculus [7]): 4
Cl.Cl.c1cc(-c2cnc(-c3ccc(C4=NCCN4)cc3)o2)ccc1C1=NCCN1 |  |  |  |  |  |  |  |  |  | Delta MST (Mus musculus [20]): 1.6 days; Delta MST (Mus musculus [21]): 0.4 days; Delta MST (Mus musculus [18]): 0.2 days
CC1CNC(c2ccc(-c3cnc(-c4ccc(C5=NC(C)CN5)cc4)o3)cc2)=N1.Cl.Cl (configuration not stated) |  |  |  |  |  |  |  |  |  | Delta MST (Mus musculus [14]): 1 days; Delta MST (Mus musculus [25]): 2.4 days; Delta MST (Mus musculus [21]): 5.2 days; Delta MST (Mus musculus [23]): 6.8 days; Delta MST (Mus musculus [26]): Toxic death; Delta MST (Mus musculus [18]): 2.2 days
Cl.Cl.c1cc(-c2ccc(-c3ccc(C4=NCCCN4)cc3)nn2)ccc1C1=NCCCN1 |  | 4 |  | 4 |  |  | 1 | 1 |  | Delta MST (Mus musculus [17]): Toxic death
Cl.Cl.N=C(N)c1ccc(-c2nnc(-c3ccc(C(=N)N)cc3)o2)cc1 |  |  |  |  |  |  |  |  |  | Delta MST (Mus musculus [4]): 0.8 days; Delta MST (Mus musculus [5]): 0.8 days; Delta MST (Mus musculus [13]): Toxic death
Cl.Cl.c1cc(-c2ccc(-c3ccc(C4=NCCN4)cc3)nn2)ccc1C1=NCCN1 |  |  |  |  | 3 |  | 1 |  | 5 | Delta MST (Mus musculus [2]): 1.1 days; Delta MST (Mus musculus [4]): 1.1 days; Delta MST (Mus musculus [9]): 0.3 days
Cl.Cl.c1cc(-c2nnc(-c3ccc(C4=NCCN4)cc3)o2)ccc1C1=NCCN1 |  |  |  |  |  |  |  |  |  | Delta MST (Mus musculus [4]): 0.8 days; Delta MST (Mus musculus [5]): 1 days; Delta MST (Mus musculus [13]): Toxic death
